# Results from publication PMC5321741, “Arylmethylamino steroids as antiparasitic agents” (Nature Communications, 2017).
# Experiments:
# Assay type in all cases: cell-based
# P. falciparum strain Dd2 = experiment: 72 h 3H-hypoxanthine incorporation assay, chloroquine-resistant strain; conditions: Plasmodium falciparum
# [1] = test system: Penicillium notatum JMRC:STI:50164; experiment: agar diffusion inhibition zone test; conditions: 1o, 2o 1,000 µg/ml in DMSO, amphotericin B 10 µg/ml, solvent DMSO 13p
# Experimental: (§1) The following organisms were tested at the Hans Knöll Institute in Jena, for their susceptibility to the compounds 1o and 2o: Bacillus subtilis JMRC:STI:10880, Staphylococcus aureus JMRC:ST:10760, Escherichia coli JMRC:ST:33699, Pseudomonas aeruginosa JMRC:ST:33772, Pseudomonas aeruginosa JMRC:ST:337721, Staphylococcus aureus JMRC:ST:33793 (multi-resistant), Enterococcus faecalis JMRC:ST:33700 (Vancomycin-resistant), Mycobacterium vaccae JMRC:STI:10670, Sporobolomyces salmonicolor (Basidiomycetes yeast) JMRC:ST:35974, Candida albicans (Ascomycetes yeast) JMRC:STI:25000, Penicillium notatum JMRC:STI:50164.
# (§2) The bacteria were propagated in Mueller Hinton Broth (Oxoid)[49]. Yeast was propagated in YPD (yeast extract peptone dextrose): 1% yeast extract, 10 g; 2% peptone, 20 g; 2% agar, 20 g; 2% dextrose (glucose), 20 g; Sigma-Y1375. All bacteria and yeast suspensions were freshly made. The cultures were incubated at 37 °C for 16 h. Afterwards, the bacteria concentration from each culture was determined, and 34 ml of nutrient agar was loaded with 10^7 cells. These cultures were stored at 6-8 °C and could be used for seven days for the preparation of test plates. 34 ml of nutrient agar was liquefied and inoculated with the calculated amount of inoculum bacteria suspension at 48–50 °C, a temperature suitable for vegetative forms of bacteria. The inoculated nutrient media (34 ml each) were immediately poured into the prepared test plates (3 mm layer). With a punching device, 12 holes per test plate were punched out. For inhibiting bacterial growth, ciprofloxacin was used as a reference substance. The test substances were dissolved in distilled water, and 5 μg ml^−1 and 50 μl was added to each bacterial culture. For inhibition of fungal growth, amphotericin B served as the reference substance. The test substances were diluted to 10 μg ml^−1 in DMSO/methanol; 50 μl was added to each culture.
# (§3) Configuring the test plate; volumes/punched hole: 50 μl; test solutions/test plate: 1 × 50 μl reference substance. Test plates were cultivated for 18 h at 37 °C. Analysis: Reading the inhibition zones (IZ): As IZ, the zone in which no growth can be determined with the naked eye is measured; the tiniest colonies on the edge of the inhibition zone were therefore not taken into consideration. The diameter (φ) of the IZ is measured in mm. The analysis of IZ φ is carried out internationally with the help of statistic procedures, especially regression analysis. With each test approach, the reference substance was brought along as a control; if there were deviations from allowed IZ φ, the test was repeated.
# (§4) The inhibition of bacterial growth was determined using bacterial cultures grown in Müller-Hinton Bouillon, which was configured at barely visible opacity with the McFarland Standard Nr. 0.5, which indicates a bacterial density of 10^8 ml^−1. This bacterial suspension was diluted with Müller-Hinton Bouillon using 2-fold dilution series in the agar diffusion test.
# (§5) Analysis: The growth in the inhibition zones around the holes containing active substances is thereby compared with the growth in the growth control (no active substance). Bacterial growth was determined according to four measurements: p=presence of colonies in the inhibition zone, P=presence of many colonies in the inhibition zone, A=indication of inhibition, F=facilitation.
# [2] = test system: Mycobacterium vaccae JMRC:STI:10670; experiment: agar diffusion inhibition zone test; conditions: 1o, 2o 1,000 µg/ml in DMSO; ciprofloxacin 5 µg/ml; solvent DMSO 13P
# Experimental: as §1, §2, §3, §4, §5
# [3] = test system: Escherichia coli JMRC:ST:33699; experiment: agar diffusion inhibition zone test; conditions: 1o, 2o 1,000 µg/ml in DMSO; ciprofloxacin 5 µg/ml; solvent DMSO 13P
# Experimental: as §1, §2, §3, §4, §5
# [4] = test system: Pseudomonas aeruginosa JMRC:ST:337721; experiment: agar diffusion inhibition zone test; conditions: 1o, ciprofloxacin 5 µg/ml, solvent DMSO 16P
# Experimental: as §1, §2, §3, §4, §5
# [5] = test system: Staphylococcus aureus JMRC:ST:33793 (multi-resistant); experiment: agar diffusion inhibition zone test; conditions: 1o, ciprofloxacin 5 µg/ml, solvent DMSO 12P
# Experimental: as §1, §2, §3, §4, §5
# [6] = test system: Sporobolomyces salmonicolor JMRC:ST:35974; experiment: agar diffusion inhibition zone test; conditions: 1o, 2o 1,000 µg/ml in DMSO; amphotericin B 10 µg/ml; solvent DMSO 20p
# Experimental: as §1, §2, §3, §4, §5
# [7] = test system: Bacillus subtilis JMRC:STI:10880; experiment: agar diffusion inhibition zone test; conditions: 1o, ciprofloxacin 5 µg/ml, solvent DMSO 12P
# Experimental: as §1, §2, §3, §4, §5
# [8] = test system: Enterococcus faecalis JMRC:ST:33700 (Vancomycin-resistant); experiment: agar diffusion inhibition zone test; conditions: 1o, ciprofloxacin 5 µg/ml, solvent DMSO 12P
# Experimental: as §1, §2, §3, §4, §5
# [9] = test system: Pseudomonas aeruginosa JMRC:ST:33772; experiment: agar diffusion inhibition zone test; conditions: 1o, ciprofloxacin 5 µg/ml, solvent DMSO 13P
# Experimental: as §1, §2, §3, §4, §5
# [10] = test system: Staphylococcus aureus JMRC:ST:10760; experiment: agar diffusion inhibition zone test; conditions: 1o, ciprofloxacin 5 µg/ml, solvent DMSO 12P
# Experimental: as §1, §2, §3, §4, §5
# [11] = test system: Lichtheimia corymbifera JMRC:SF:09682; experiment: spore inhibition test; conditions: 48 h; start concentration 1 mg/ml (1o, 2o), 100 µg/ml (Amphotericin B)
# Experimental: The following test organisms were used for their susceptibility to compounds 1o and 2o: Alternaria alternata JMRC:SF:09317, Arthroderma benhamiae JMRC:ST:35888, Aspergillus fumigatus JMRC:Afum:00073=ATCC 46645, Aspergillus terreus JMRC:SF:06307, Candida albicans JMRC:ST:35864, Lichtheimia corymbifera JMRC:SF:09682, Penicillium chrysogenum JMRC:SF:10137, Rhizopus arrhizus (syn. R. oryzae) JMRC:SF:05857=ATCC 56536, CBS 112.07.
# Fungi were grown on 3% malt extract solidified medium for 1 to 2 weeks at room temperature. Then the plates were washed with 7 ml sterile distilled water, and the spore suspension was filtered through 4 layers of sterile Miracloth (Kalbiochem, USA) to remove the hyphae. The concentration of the spore suspension was set to 2 × 10^4 conidia ml^−1 for the in vitro assays.
# The spore inhibition assay took place in 96-well microplates (flat base). 50 μl of the prepared spore suspension was seeded and then mixed with 50 μl of the respective inhibitor substance. Tests were started with end concentrations of 1 mg ml^−1 and were then reduced in a minimum of 10 halving steps. Thus a 2 mg ml^−1 stock solution diluted in half ten times with solvent (distilled water, 2% DMSO in distilled water, or 2% DMF in distilled water) and each 50 μl was transferred to 50 μl spore suspension. For each test substance, 12 holes on the microtiter plate were filled. After 24 h incubation (25 °C), the germination of the spores was macroscopically and microscopically examined directly in the microtiter plate via measurement of the optical density and light microscopy using an inverse stereomicroscope with subsequent photodocumentation, respectively. If necessary, the plates were further incubated for another 24 or 48 h, depending on the extent of fungal germination.
Structure (SMILES),IC50 (P. falciparum strain Dd2),"zone of inhibition at 1000 µg/mL ([1]; Penicillium chrysogenum, read-out: inhibition zone diameter, Penicillium notatum (P1))","inhibition zone diameter, Mycobac. vaccae (M4) [2]","inhibition zone diameter, Escherichia coli (B4) [3]","zone of inhibition ([4]; Pseudomonas aeruginosa, read-out: inhibition zone diameter, Pseudomonas aeruginosa JMRC:ST:337721 (B9))","zone of inhibition ([5]; Staphylococcus aureus, MRSA, read-out: inhibition zone diameter, MRSA Staph. aureus (R9))","inhibition zone diameter, Sporobolo. salmonicolor (H4) [6]","zone of inhibition ([7]; Bacillus subtilis, read-out: inhibition zone diameter, Bacillus subtilis (B1))","zone of inhibition ([8]; read-out: inhibition zone diameter, VRSA Enteroc. faecalis (R10))","zone of inhibition ([9]; Pseudomonas aeruginosa, read-out: inhibition zone diameter, Pseudomonas aeruginosa JMRC:ST:33772 (B7))","zone of inhibition ([10]; Staphylococcus aureus, read-out: inhibition zone diameter, Staphylococcus aureus (B3))","antifungal profile, 1st value = microscopic visualization-based observation, Lichtheimia corymbifera [11]","antifungal profile, 2nd value = optical density-based observation, Lichtheimia corymbifera [11]","inhibition zone diameter, Penicillium notatum (P1) [1]","inhibition zone diameter, Pseudomonas aeruginosa JMRC:ST:337721 (B9) ([4]; 2o 1,000 µg/ml in DMSO)","inhibition zone diameter, MRSA Staph. aureus (R9) ([5]; 2o 1,000 µg/ml in DMSO)","inhibition zone diameter, Bacillus subtilis (B1) ([7]; 2o 1,000 µg/ml in DMSO)","inhibition zone diameter, VRSA Enteroc. faecalis (R10) ([8]; 2o 1,000 µg/ml in DMSO)","inhibition zone diameter, Pseudomonas aeruginosa JMRC:ST:33772 (B7) ([9]; 2o 1,000 µg/ml in DMSO)","inhibition zone diameter, Staphylococcus aureus (B3) ([10]; 2o 1,000 µg/ml in DMSO)"
COc1ccc2c(c1)CCC1C2CC[C@@]2(C)C1CC[C@@H]2NCc1cc2ccccc2cc1O (some centres unmarked) [2o],2 ± 1.2 nM,0 mm,17p,16P,0 mm,0 mm,24p,0 mm,0 mm,0 mm,0 mm,62.5,7.8,,,,,,,
COc1ccc2c(c1)CCC1C2CC[C@@]2(C)C1CC[C@H]2NCc1cc2ccccc2cc1O (some centres unmarked) [1o],1 ± 0.9 nM,,18p,15P,,,22p,,,,,500,62.5,0 mm,0 mm,0 mm,0 mm,0 mm,0 mm,0 mm
